According to patent US20240309389A1, “Chimeric FCeRI a-Chain Gene, Chimeric FCeRI a-Chain Protein, Cells, Analysis Kit and Analysis Method” (TEIKYO HEISEI UNIVERSITY, priority 2021, published 2024):

Experiments:
Format in all cases: cell-based, rat
RBL-NL4 cells = experiment: Luciferase expression on stimulation in RBL-NL4 cells; details: unsensitized, 250 μM, 37° C., 3 hours
Description: Luciferase expression of when stimulated with ionomycin, anti-human IgE antibody, or specific antigen is confirmed for each of cultures obtained by culturing the seven clones obtained in (2) above and RBL-NL4 cells. Specifically, the confirmation was carried out as follows.
On the day before the test for confirming luciferase expression when the stimulus was applied, the following operations were performed. […] The medium was placed in each well of a white 96-well plate made of plastic with a transparent bottom (product number: 165306, Thremo). Cells of each clone were then seeded at 5×10^4 cells/50 μL per well, and allowed to stand overnight in an incubator for sensitization. […]
After applying the stimulation, 50 μL/well of a substrate solution (One-Glo Luciferase Assay System, Promega) was added to each well and allowed to react for 5 minutes, and then the luminescence intensity was measured using a luminometer (GloMax, Promega).
In FIG. 7, black dots indicate the measured luciferase luminescence intensity (unit: CPS) (right axis: LUMINESCENCE (CPS)). […] The relative luminescence intensity is the relative luminescence intensity when the luminescence intensity of each clone when unstimulated is set to 1, and is shown on a log scale.

HuRa-40 cells = experiment: IgE crosslinking-induced luciferase expression, inhibitor evaluation in HuRa-40 cells
Description: (§1) HuRa-40 cells and RS-ATL8 cells were prepared.
(§2) After washing the sensitized cells with PBS three times, […] was added and stimulated at 37° C. for 3 hours.
(§3) After the stimulation time had elapsed, Bright-Glo (Promega) substrate solution was added to each well in an amount of 50 μL/well, and reacted for 5 minutes at room temperature while shielding from light. After that, the luminescence intensity was measured with a microplate reader (GloMax, Promega).
(§4) A study similar to that described above was performed with cyclosporin A instead of omalizumab. Specifically, RS-ATL8 cells or HuRa-40 cells were added with cyclosporin A at a final concentration of 0 to 1 μg/mL, and, 30 minutes later, 50 ng/ml of human IgE was added to sensitize them overnight. After washing with PBS three times, the cells were stimulated with an anti-human IgE antibody for 3 hours, and Bright-Glo was added to measure luminescence.

RS-ATL8 cells = experiment: IgE crosslinking-induced luciferase expression, inhibitor evaluation in RS-ATL8 cells
Description: as §1, §2, §3, §4

[1] = drug added 30 min before 50 ng/ml human IgE overnight sensitization, anti-human IgE stimulation 3 h, read from FIG. 17
[2] = omalizumab 100 μg/mL, fraction of the 0 μg/mL value

| Compound | luciferase expression level compared to anti-human IgE antibody stimulation (no IgE and aIgE) (RBL-NL4 cells) | change of luminescence intensity, concentration increased from 0.1 μg/mL to 1 μg/mL (HuRa-40 cells) | 50% inhibitory concentration (IC50) (HuRa-40 cells; [1]) | luminescence intensity at 100 μg/mL compared to 0 μg/mL (HuRa-40 cells; [2]) | change of luminescence intensity, concentration increased from 0.1 μg/mL to 1 μg/mL (RS-ATL8 cells) | change of luminescence intensity, concentration increased from 1 μg/mL to 10 μg/mL (RS-ATL8 cells) | 50% inhibitory concentration (IC50) (RS-ATL8 cells; [1]) | luminescence intensity at 100 μg/mL compared to 0 μg/mL (RS-ATL8 cells; [2]) |
| --- | --- | --- | --- | --- | --- | --- | --- | --- |
| C[C@H](CCC(=O)O)C[C@H](C)C[C@H](C)C(=O)/C=C(\O)[C@H](C)C[C@H](C)C/C=C/[C@@H](C)[C@@H](O)[C@@H](C)[C@@H](O)C[C@@H]1CC[C@@](C)([C@H]2CC[C@@](C)([C@@H](C)O)O2)O1 [ionomycin] | greatly increased | – | – | – | – | – | – | – |
| Omalizumab | – | significant decrease in luminescence intensity | less than 1 μg/mL | less than 1/30 | decreased slightly | further decreased | greater than 1 μg/mL | about ¼ |
